Consider two molecules from US5200404A, “3-tetrazolylthiomethyl cephalosporin antibiotics” (ICI Pharma, priority 1990, dated 1993).

One data set relates to A. anitratus (A8322001). Put plainly: MIC by agar-dilution, Diagnostic Sensitivity Test agar. To be noted: Acinetobacter calcoaceticus. The data set is classed as cell-based. From the text: (§1) The following results were obtained for Example 1 and two comparative compounds on a standard in vitro test system using Diagnostic Sensitivity Test agar medium. The antibacterial activity is described in terms of the minimum inhibitory concentration (MIC) determined by the agar-dilution technique with an inoculum size of 10^4 CFU/spot.

In data set [1] the test system is Citro. freundii DR(A8382034). The data set is described as above. The settings on record: Citrobacter freundii, inoculum 10^4 CFU/spot. In kind it is cell-based.
Description: as §1

Data set [2] relates to P. aeruginosa 18S(A8101024). Described as above. In kind it is cell-based. To be noted: Pseudomonas aeruginosa.
Description: as §1

For data set [3], the system named is Ent. cloacae DR(A8401108). The data set is described as above. The data set is classed as cell-based. To be noted: Enterobacter cloacae, inoculum 10^4 CFU/spot.
Description: as §1

Data set [4] relates to P. aeruginosa DR18SH(A81011020). Described as above. In kind it is cell-based. The settings on record: Pseudomonas aeruginosa.
Description: as §1

In another data set the test system is E. coli DCO(A8341098). Described as above. The settings on record: Escherichia coli, inoculum 10^4 CFU/spot. The data set is classed as cell-based.
Description: as §1

For data set [5], the system named is Ent. cloacae P99-(A8401054). The data set is described as above. The settings on record: Enterobacter cloacae. In kind it is cell-based.
Description: as §1

The test system of data set [6] is Serr. marcesens DR(A8421078). The description is as above. In kind it is cell-based. To be noted: inoculum 10^4 CFU/spot.
Description: as §1

In data set [7] the test system is P. aeruginosa PU21(A8101028). Described as above. The data set is classed as cell-based. The settings on record: Pseudomonas aeruginosa.
Description: as §1

Data set [8] concerns Pr. morganii DR(A8433062). The description is as above. In kind it is cell-based. The settings on record: Morganella morganii, inoculum 10^4 CFU/spot.
Description: as §1

In data set [9] the test system is Strep. pyogenes (A8681018). The data set is described as above. The data set is classed as cell-based. The settings on record: Streptococcus pyogenes.
Description: as §1

For data set [10], the system named is Ent. cloacae DR(A8401109). The data set is described as above. The data set is classed as cell-based. The settings on record: Enterobacter cloacae, inoculum 10^4 CFU/spot.
Description: as §1

In a further data set the test system is Pr. morganii (A8433001). The data set is described as above. To be noted: Morganella morganii, inoculum 10^4 CFU/spot. The data set is classed as cell-based.
Description: as §1

In data set [11] the test system is Citro. freundii DR(A8382031). The description is as above. The data set is classed as cell-based. To be noted: Citrobacter freundii.
Description: as §1

In data set [12] the test system is E. coli JS3 RTEM(A8341135). The description is as above. The data set is classed as cell-based. The settings on record: Escherichia coli.
Description: as §1

The next data set deals with S. dublin (A8369001). The data set is described as above. To be noted: Salmonella enterica. The data set is classed as cell-based.
Description: as §1

Data set [13] deals with Serr. marcesens (A8421003). Described as above. In kind it is cell-based. The settings on record: inoculum 10^4 CFU/spot.
Description: as §1

Another data set has as its system P. stuartii DR(A8382031). The data set is described as above. The data set is classed as cell-based. To be noted: Providencia stuartii.
Description: as §1

The test system of data set [14] is Strep. pneumoniae (A8671001). Described as above. The data set is classed as cell-based. To be noted: Streptococcus pneumoniae.
Description: as §1

For data set [15], the system named is K. oxytoca D1^+ (A8395056). The data set is described as above. In kind it is cell-based. The settings on record: Klebsiella oxytoca.
Description: as §1

Data set [16] has as its system Ent. cloacae P99+(A8401053). The description is as above. In kind it is cell-based. The settings on record: Enterobacter cloacae.
Description: as §1

The next data set can be described thus: half-life in marmosets. The data set is classed as in vivo. Here is the method: when dosed to marmosets at 3 mg/kg.

Values after ≈ are worked out from the molar mass of the structure shown. Read-outs that look alike come from different tables or passages of the source.

A word on the MIC: it is the smallest concentration in the dilution series that meets the test's criterion for growth inhibition. The half-life is how long it takes for the measured level to halve. A high value points to slow decline.

Consider `CC(C)(O/N=C(\C(=O)N[C@@H]1C(=O)N2C(C(=O)[O-])=C(C[n+]3ccccc3)CS[C@H]12)c1csc(N)n1)C(=O)O` [(B), ceftazidime, reference compound], for which the MIC with A. anitratus (A8322001) is 16 µg/mL (≈ 29.3 µM); in data set [1], 64 µg/mL (≈ 117 µM); in [2] it was 2 µg/mL (≈ 3.66 µM); in data set [3] it was 32 µg/mL (≈ 58.5 µM); in data set [4] it was 16 µg/mL (≈ 29.3 µM); against E. coli DCO(A8341098) it was 0.125 µg/mL (≈ 0.229 µM). Besides, the MIC in [5] was 0.125 µg/mL (≈ 0.229 µM); in data set [6], 0.5 µg/mL (≈ 0.915 µM); in data set [7] it was 1 µg/mL (≈ 1.83 µM); in data set [8], 16 µg/mL (≈ 29.3 µM); in data set [9], 0.125 µg/mL (≈ 0.229 µM); in [10], 32 µg/mL (≈ 58.5 µM). The MIC against Pr. morganii (A8433001) was 0.06 µg/mL (≈ 0.11 µM); in data set [11], 128 µg/mL (≈ 234 µM); in data set [12] it was 0.06 µg/mL (≈ 0.11 µM); against S. dublin (A8369001) it was 0.125 µg/mL (≈ 0.229 µM); in data set [13], 0.25 µg/mL (≈ 0.457 µM); against P. stuartii DR(A8382031) it was 4 µg/mL (≈ 7.32 µM). In addition, the MIC was determined as 0.125 µg/mL (≈ 0.229 µM) in data set [14] and 0.5 µg/mL (≈ 0.915 µM) in [15].
For the molecule `CC(C)(O/N=C(\C(=O)NC1C(=O)N2C(C(=O)O)=C(CSc3nnnn3-c3cc(O)c(O)c(Cl)c3CC(=O)O)CS[C@H]12)c1csc(N)n1)C(=O)O` (stereo partly shown) [Example 1, 7-[2-(2-Aminothiazol-4-yl)-2-((Z)-1-carboxy-1-methylethoxyimino)acetamido]-3-[(1-(2-carboxymethyl-3-chloro-4,5-dihydroxyphenyl)tetrazol-5-yl)thiomethyl]ceph-3-em-4-carboxylic acid], the MIC in the data set with A. anitratus (A8322001) (A. anitratus (A8322001), inoculum 10^4 CFU/spot, read-out: MIC) was 0.06 µg/mL (≈ 0.0779 µM); in data set [1] it was 0.5 µg/mL (≈ 0.649 µM); in data set [2] (P. aeruginosa 18S(A8101024), inoculum 10^4 CFU/spot, read-out: MIC), 0.004 µg/mL (≈ 0.00519 µM); in data set [3], 0.25 µg/mL (≈ 0.325 µM); in data set [4] (P. aeruginosa DR18SH(A81011020), inoculum 10^4 CFU/spot, read-out: MIC), 0.016 µg/mL (≈ 0.0208 µM); in the data set on E. coli DCO(A8341098), 0.002 µg/mL (≈ 0.0026 µM). The MIC in [5] (Ent. cloacae P99-(A8401054), inoculum 10^4 CFU/spot, read-out: MIC) was found to be 0.125 µg/mL (≈ 0.162 µM); in data set [6], 0.008 µg/mL (≈ 0.0104 µM); in data set [7] (P. aeruginosa PU21(A8101028), inoculum 10^4 CFU/spot, read-out: MIC), 0.008 µg/mL (≈ 0.0104 µM); in [8], 0.06 µg/mL (≈ 0.0779 µM); in data set [9] (Strep. pyogenes (A8681018), inoculum 10^4 CFU/spot, read-out: MIC), 0.5 µg/mL (≈ 0.649 µM); in data set [10], 0.125 µg/mL (≈ 0.162 µM). For the same molecule, the MIC was determined as 0.008 µg/mL (≈ 0.0104 µM) against Pr. morganii (A8433001); 0.25 µg/mL (≈ 0.325 µM) in data set [11] (Citro. freundii DR(A8382031), inoculum 10^4 CFU/spot, read-out: MIC); 0.001 µg/mL (≈ 0.0013 µM) in [12]; 0.004 µg/mL (≈ 0.00519 µM) in the data set on S. dublin (A8369001) (S. dublin (A8369001), inoculum 10^4 CFU/spot, read-out: MIC); 1 µg/mL (≈ 1.3 µM) in data set [16]; 0.008 µg/mL (≈ 0.0104 µM) in [13]. Besides, the MIC was determined as 0.03 µg/mL (≈ 0.039 µM) in the data set with P. stuartii DR(A8382031) (P. stuartii DR(A8382031), inoculum 10^4 CFU/spot, read-out: MIC); 0.03 µg/mL (≈ 0.039 µM) in data set [14] (Strep. pneumoniae (A8671001), inoculum 10^4 CFU/spot, read-out: MIC); 0.004 µg/mL (≈ 0.00519 µM) in [15] (K. oxytoca D1^+ (A8395056), inoculum 10^4 CFU/spot, read-out: MIC). Moreover, in “half-life in marmosets” (in words), the “half-life (t 1/2) compared with representative compounds of EP-A-272827” value is “substantially and significantly longer”. This molecule showed a half-life in the data set “half-life in marmosets” (marmoset, in vivo, 3 mg/kg) of 20.7 h.
